A short description of data set [1]: Sputum pourability (viscosity) test. On the set-up: key to pourability: “0”=no change; “+++>” dissolved. As to the method: The ability of sodium citrate solution to decrease the viscosity of sputum samples was examined as follows.
Three different sputum samples were employed: sample 1 was of a runny consistency; sample 2 was of an intermediate consistency; and sample 3 was of a heavy consistency. 100 ul samples were measured and transferred to assay tubes in duplicate (except for sample 1 which was in short supply) and placed in a 37° C. preheated Thermomixer. 10 ul of saline (0.9% NaCl) was used as a negative control. 5 ul, 10 ul, 50 ul or 100 ul of 55 mM aqueous sodium citrate solution was added per tube and mixed (400 rpm). Each tube was checked for pourability, or viscosity, at 30 sec, 90 sec and 150 sec by observing the movement of the sputum sample along the wall of the tube. The pourability of sample 3 was also checked at 5 minutes. The pourability was graded as follows: “0”=no change to “+++>” dissolved. The results of the study are shown below in Table 2 for samples 1-3, and in FIG. 1.

Data set [2] can be described thus: Safety and toxicity of nebulized sodium citrate in healthy volunteers (FEV1, FVC). On the set-up: FEV1 / FVC: unit not given here. Type of data set: in vivo, human. To be noted: for FEV1 / FVC: 5 minutes after treatment. As to the method:
The safety and toxicity of aqueous sodium citrate solution was examined as follows. Treatment solutions were prepared by diluting 0 mM, 11 mM and 22 mM sodium citrate in 2 ml of water. The solutions were nebulized and administered to three healthy volunteers in successive treatments, with ascending sodium citrate dosage volumes and a 5 min break between each treatment. The forced expiratory volume in 1 sec (FEV1) and forced vital capacity (FVC) were recorded 5 minutes after each treatment.

The conditions of data set [3]: average found with alpha dornase; cited from earlier work.

We go through two molecules from US20160120898A1, “METHODS AND COMPOSITIONS FOR THE DISRUPTION OF BIOFILMS AND TREATMENT OF DISORDERS CHARACTERIZED BY THE PRESENCE OF BIOFILMS” (BREATHE EASY LIMITED, priority 2013, published 2016).

As for `O=C([O-])CC(O)(CC(=O)[O-])C(=O)[O-].[Na+].[Na+].[Na+]` [sodium citrate], the pourability entry in data set [1] (5 ul added to 100 ul sputum, sample 1 (runny), 30 sec) was “+++>”; in data set [1] (5 ul added to 100 ul sputum, sample 1 (runny), 90 sec) it was “+++>”; in data set [1] (5 ul added to 100 ul sputum, sample 1 (runny), 150 sec), “+++>”; in data set [1] (5 ul added to 100 ul sputum, sample 1 (runny), time 0) it was “+++>”; in data set [1] (5 ul added to 100 ul sputum, sample 2 (intermediate), 30 sec), 0; in data set [1] (5 ul added to 100 ul sputum, sample 2 (intermediate), time 0), 0. The pourability in data set [1] (5 ul added to 100 ul sputum, sample 3 (heavy), 30 sec) is 0; in data set [1] (5 ul added to 100 ul sputum, sample 3 (heavy), 5 min), “+>”; in data set [1] (5 ul added to 100 ul sputum, sample 3 (heavy), time 0), 0; in data set [1] (10 ul added to 100 ul sputum, sample 1 (runny), 30 sec) it was “+++>”; in data set [1] (10 ul added to 100 ul sputum, sample 1 (runny), 90 sec) it was “+++>”; in data set [1] (10 ul added to 100 ul sputum, sample 1 (runny), 150 sec) it was “+++>”. In addition, the pourability result was “+++>” in data set [1] (10 ul added to 100 ul sputum, sample 1 (runny), time 0); 0 in data set [1] (10 ul added to 100 ul sputum, sample 2 (intermediate), 30 sec); “+>” in data set [1] (10 ul added to 100 ul sputum, sample 2 (intermediate), 150 sec); 0 in data set [1] (10 ul added to 100 ul sputum, sample 2 (intermediate), time 0); 0 in data set [1] (10 ul added to 100 ul sputum, sample 3 (heavy), 30 sec); “++>” in data set [1] (10 ul added to 100 ul sputum, sample 3 (heavy), 5 min). For the same molecule, the pourability is 0 in data set [1] (10 ul added to 100 ul sputum, sample 3 (heavy), time 0); “+++>” in data set [1] (50 ul added to 100 ul sputum, sample 1 (runny), 30 sec); “+++>” in data set [1] (50 ul added to 100 ul sputum, sample 1 (runny), 90 sec); “+++>” in data set [1] (50 ul added to 100 ul sputum, sample 1 (runny), 150 sec); “+++>” in data set [1] (50 ul added to 100 ul sputum, sample 1 (runny), time 0); “++>” in data set [1] (50 ul added to 100 ul sputum, sample 2 (intermediate), 150 sec). Besides, the pourability in data set [1] (50 ul added to 100 ul sputum, sample 2 (intermediate), time 0) is reported as 0; in data set [1] (50 ul added to 100 ul sputum, sample 3 (heavy), 90 sec) it was “+>”; in data set [1] (50 ul added to 100 ul sputum, sample 3 (heavy), 150 sec) it was “+>”; in data set [1] (50 ul added to 100 ul sputum, sample 3 (heavy), 5 min), “+++>”; in data set [1] (50 ul added to 100 ul sputum, sample 3 (heavy), time 0) it was 0; in data set [1] (100 ul added to 100 ul sputum, sample 2 (intermediate), 90 sec) it was “++>”. Also, the pourability entry is given as “+++>” in data set [1] (100 ul added to 100 ul sputum, sample 2 (intermediate), 150 sec); 0 in data set [1] (100 ul added to 100 ul sputum, sample 2 (intermediate), time 0); “+++>” in data set [1] (100 ul added to 100 ul sputum, sample 3 (heavy), 5 min); 0 in data set [1] (100 ul added to 100 ul sputum, sample 3 (heavy), time 0). The “time of maximal effectiveness in reducing sputum viscosity” value in data set [1] (following incubation) came to 5 min. Moreover, the FEV1 was found to be 3.90 in data set [2] (Volunteer 1, 11 mM nebulized); 3.96 in data set [2] (Volunteer 1, 22 mM nebulized); 2.39 in data set [2] (Volunteer 2, 11 mM nebulized); 2.28 in data set [2] (Volunteer 2, 22 mM nebulized); 2.79 in data set [2] (Volunteer 3, 22 mM nebulized). For the same molecule, the FVC in data set [2] (Volunteer 1, 11 mM nebulized) is listed as 4.66; in data set [2] (Volunteer 1, 22 mM nebulized) it was 4.82; in data set [2] (Volunteer 2, 11 mM nebulized), 3.48; in data set [2] (Volunteer 2, 22 mM nebulized), 3.40; in data set [2] (Volunteer 3, 22 mM nebulized) it was 2.84. Moreover, the “irritation or other negative side effects” value in data set [2] (nebulization in three healthy volunteers) is reported as “did not result in any irritation or other negative side effects”.

B1: alpha dornase: Pulmozyme® (dornase alfa or rhDNase), approved for treatment of CF (protein, UniProt P24855 23-282, looked up)
Deoxyribonuclease-1: LKIAAFNIQTFGETKMSNATLVSYIVQILSRYDIALVQEVRDSHLTAVGKLLDNLNQDAPDTYHYVVSEPLGRNSYKERYLFVYRPDQVSAVDSYYYDDGCEPCGNDTFNREPAIVRFFSRFTEVREFAIVPLHAAPGDAVAEIDALYDVYLDVQEKWGLEDVMLMGDFNAGCSYVRPSQWSSIRLWTSPTFQWLIPDSADTTATPTHCAYDRIVVAGMLLRGAVVPDSALPFNFQAAYGLSDQLAQAISDHYPVEVMLK
modifications: dornase alfa
notes: Pulmozyme® (dornase alfa or rhDNase), approved for treatment of CF
Regarding B1, in data set [3], the “improvement in lung function (FEV1), average” value is 9%.
